Values of other authors as cited in US6867197B1, “Method of targeting conjugate molecules to mitochondria” (Mitokor, priority 1995, dated 2005).

System: mitochondria
Conditions: high concentrations; NAO is a mitochondrial toxin at these concentrations

## CCCCCCCCC[n+]1c2cc(N(C)C)ccc2cc2ccc(N(C)C)cc21 [NAO, 10N-nonylacridine orange]
  concentrations at which electron transport, ATP hydrolysis and Pi-transport are inhibited and respiration disrupted: 3 to 10 µM
